These results are taken from US20230265116A1, “DEGRADATION OF (EGFR) BY CONJUGATION OF EGFR INHIBITORS WITH E3 LIGASE LIGAND AND METHODS OF USE” (BEIGENE, LTD., priority 2020, published 2023).

What all share (type): cell-based
In experiment [1] the test system is EGFR Del19/C797S (H1975-clone #23). In words: EGFR degradation HTRF assay, H1975-clone #23 DC cells. As to conditions: for H1975 #23 DC Dmax (%): maximum percentage of degradation. The procedure, abridged:
(§1)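 H1975 clones stably overexpressing mutant EGFR, with endogenous EGFR knocked out by sgRNA and homozygosity confirmed by sequencing, were treated 16h at 37° C. with compounds in 0.2% DMSO (top final 10 uM, 5-fold, 8 doses). Lysates were read by HTRF (665/620 nm); DC50 and Dmax came from fitting % degradation versus DMSO control.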
(TR-FRET usually uses a lanthanide donor and a delayed reading to cut background.)

Experiment [2] deals with T1, EGFR L858R/T790M/C797S (BaF3-LTC cells) (Homo sapiens, UniProt P00533, C797S/L858R/T790M).
T1 construct: expressed in transfected cells; host or cells: BaF3
T1 sequence (P00533 25-1210 T790M/C797S/L858R): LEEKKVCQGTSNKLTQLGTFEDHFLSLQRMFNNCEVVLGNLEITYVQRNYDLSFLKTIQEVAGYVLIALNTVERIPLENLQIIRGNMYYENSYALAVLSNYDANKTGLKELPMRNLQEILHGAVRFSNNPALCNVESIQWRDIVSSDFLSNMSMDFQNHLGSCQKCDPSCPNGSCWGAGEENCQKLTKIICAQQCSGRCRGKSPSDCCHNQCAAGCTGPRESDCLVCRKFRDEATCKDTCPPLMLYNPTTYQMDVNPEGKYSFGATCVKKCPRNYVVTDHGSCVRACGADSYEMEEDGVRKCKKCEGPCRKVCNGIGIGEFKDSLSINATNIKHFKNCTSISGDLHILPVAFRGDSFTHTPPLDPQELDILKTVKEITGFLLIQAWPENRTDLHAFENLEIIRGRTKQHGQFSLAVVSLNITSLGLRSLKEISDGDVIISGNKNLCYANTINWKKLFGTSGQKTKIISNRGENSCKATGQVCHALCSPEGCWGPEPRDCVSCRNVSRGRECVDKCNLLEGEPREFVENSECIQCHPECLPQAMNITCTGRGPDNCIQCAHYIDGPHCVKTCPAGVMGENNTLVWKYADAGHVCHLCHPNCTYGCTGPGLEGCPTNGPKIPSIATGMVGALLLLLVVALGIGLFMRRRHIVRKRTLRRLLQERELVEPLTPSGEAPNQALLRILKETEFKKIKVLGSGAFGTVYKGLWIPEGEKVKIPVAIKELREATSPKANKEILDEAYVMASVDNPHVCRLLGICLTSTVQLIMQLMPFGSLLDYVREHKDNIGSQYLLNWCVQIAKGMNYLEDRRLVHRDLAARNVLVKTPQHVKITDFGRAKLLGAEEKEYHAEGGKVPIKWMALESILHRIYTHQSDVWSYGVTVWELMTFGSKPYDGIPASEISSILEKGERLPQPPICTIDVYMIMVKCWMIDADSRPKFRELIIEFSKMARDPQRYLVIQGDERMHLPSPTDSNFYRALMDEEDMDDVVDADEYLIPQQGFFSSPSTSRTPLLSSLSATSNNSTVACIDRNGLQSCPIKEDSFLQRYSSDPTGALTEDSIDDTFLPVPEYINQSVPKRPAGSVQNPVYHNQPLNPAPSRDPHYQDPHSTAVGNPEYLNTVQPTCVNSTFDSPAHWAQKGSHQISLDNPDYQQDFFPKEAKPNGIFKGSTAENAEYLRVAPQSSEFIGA
Kind of experiment: EGFR degradation HTRF assay, BaF3-LTC cells. The note with it: BaF3-LTC cells; for DC50: EGFR degradation, IC50 (DC50) from curve fit, read-out: DC50(nM) BaF3-LTC; for Dmax: maximum percentage of inhibition (degradation), read-out: Dmax (%) BaF3-LTC. Summed up:
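Cells treated 16 h at 37 °C, 5% CO2 in medium with 0.2% DMSO; top final concentration 10 uM, 5-fold dilution, 8 doses. Lysates read by HTRF (665/620 nm); degradation % versus DMSO high control, DC50 from four-parameter fit, Dmax as maximal degradation.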

Experiment [3] has as its system EGFR Del19/T790M/C797S (H1975-clone #28). Kind of experiment: EGFR degradation HTRF assay, H1975-clone #28 DTC cells. The procedure, abridged: as §1
Experiment [4] deals with T2, EGFR L858R/C797S (BaF3 LC cells) (Homo sapiens, UniProt P00533, C797S/L858R).
T2 construct: expressed in transfected cells; host or cells: BaF3
T2 sequence (P00533 25-1210 C797S/L858R): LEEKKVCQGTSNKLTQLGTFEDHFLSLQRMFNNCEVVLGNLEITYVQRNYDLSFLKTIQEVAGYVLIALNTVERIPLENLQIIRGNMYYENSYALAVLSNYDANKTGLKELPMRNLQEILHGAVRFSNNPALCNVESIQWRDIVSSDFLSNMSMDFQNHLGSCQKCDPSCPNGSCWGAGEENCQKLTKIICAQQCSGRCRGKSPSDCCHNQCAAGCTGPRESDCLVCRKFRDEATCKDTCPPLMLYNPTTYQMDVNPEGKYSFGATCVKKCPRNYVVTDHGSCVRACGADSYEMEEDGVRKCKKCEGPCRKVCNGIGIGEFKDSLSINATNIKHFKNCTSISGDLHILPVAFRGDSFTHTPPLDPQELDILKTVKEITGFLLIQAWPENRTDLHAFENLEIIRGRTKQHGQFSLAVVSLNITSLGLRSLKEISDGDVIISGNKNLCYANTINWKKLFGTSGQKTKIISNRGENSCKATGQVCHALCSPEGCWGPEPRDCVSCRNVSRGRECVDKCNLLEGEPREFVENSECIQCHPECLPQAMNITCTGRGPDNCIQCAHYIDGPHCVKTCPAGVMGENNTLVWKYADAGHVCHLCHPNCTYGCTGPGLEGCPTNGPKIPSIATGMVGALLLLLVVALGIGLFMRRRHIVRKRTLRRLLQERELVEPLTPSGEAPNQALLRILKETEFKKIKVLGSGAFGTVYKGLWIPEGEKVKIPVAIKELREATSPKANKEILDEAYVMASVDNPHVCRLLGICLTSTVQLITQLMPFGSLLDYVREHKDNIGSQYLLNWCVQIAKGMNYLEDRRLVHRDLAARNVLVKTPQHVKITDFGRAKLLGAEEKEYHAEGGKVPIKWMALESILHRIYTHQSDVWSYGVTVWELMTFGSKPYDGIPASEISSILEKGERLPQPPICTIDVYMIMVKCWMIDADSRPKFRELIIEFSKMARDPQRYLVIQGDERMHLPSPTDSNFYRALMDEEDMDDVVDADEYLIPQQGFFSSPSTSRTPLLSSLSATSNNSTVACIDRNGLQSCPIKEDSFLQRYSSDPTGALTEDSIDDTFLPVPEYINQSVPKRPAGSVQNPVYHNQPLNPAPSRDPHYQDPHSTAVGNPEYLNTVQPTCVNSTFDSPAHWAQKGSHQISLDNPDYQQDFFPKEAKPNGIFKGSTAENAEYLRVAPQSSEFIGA
In words: EGFR degradation HTRF assay, BaF3 LC cells. The note with it: BaF3 LC, 16h treatment; for Dmax: maximum percentage of degradation, read-out: BaF3 LC Dmax (%); for DC50: read-out: BaF3 LC DC50.

[5] abbreviates: H1975 #23 DC, 16h treatment, read-out: H1975 #23 DC DC50.
Setting [6] is: H1975 # 28 DTC cells; EGFR degradation, IC50 (DC50) from curve fit; read-out: DC50(nM) H1975 # 28 DTC.
Setting [7] is: H1975 # 28 DTC cells; maximum percentage of inhibition (degradation).

Where two headings read alike, the source gives them in different places.

Usually DC50 stands for the concentration at which degradation of the target reaches its halfway point. The Dmax is the largest share of the target that was removed. In the case of `CCOc1cc(N2CCC(N3CCN(CCc4cc5oc(=O)n(C6CCC(=O)NC6=O)c5cc4F)CC3)CC2)c(CC)cc1Nc1ncc(Br)c(Nc2cc(F)c3nc(CC)ccc3c2P(C)(C)=O)n1` (centres unmarked) [Example 498, 3-(6-(2-(4-(1-(4-((5-bromo-4-((5-(dimethylphosphoryl)-2-ethyl-8-fluoroquinolin-6-yl)amino)pyrimidin-2-yl)amino)-5-ethoxy-2-ethylphenyl)piperidin-4-yl)piperazin-1-yl)ethyl)-5-fluoro-2-oxobenzo[d]oxazol-3(2H)-yl)piperidine-2,6-dione], the “H1975 #23 DC Dmax (%)” value in experiment [1] (16h treatment) is given as 66.76%. Moreover, the half-maximal degradation concentration (DC50) came to 0.377 nM in experiment [1] (setting [5]), 7.62 nM in experiment [2], 2.1 nM in experiment [3] (setting [6]) and 0.718 nM in experiment [4]. For the same molecule, the greatest degradation seen (Dmax) in experiment [2] came out at 91.4%; in experiment [4] it was 92.9%. Also, the “Dmax (%) H1975 # 28 DTC” value in experiment [3] (setting [7]) is on record as 86.84%.
Take `CCc1ncc2c(P(C)(C)=O)c(Nc3nc(Nc4cc(CC)c(N5CCC(N6CCN(CCc7ccc8c(c7)oc(=O)n8C7CCC(=O)NC7=O)CC6)CC5)cc4OC)ncc3Br)ccc2n1` (centres unmarked) [Example 499, 3-(6-(2-(4-(1-(4-((5-bromo-4-((5-(dimethylphosphoryl)-2-ethylquinazolin-6-yl)amino)pyrimidin-2-yl)amino)-2-ethyl-5-methoxyphenyl)piperidin-4-yl)piperazin-1-yl)ethyl)-2-oxobenzo[d]oxazol-3(2H)-yl)piperidine-2,6-dione]: in experiment [1] (16h treatment), the “H1975 #23 DC Dmax (%)” value was determined as 61.96%. The DC50 turned out to be 0.646 nM in experiment [1] (read-out: H1975 #23 DC DC50, 16h treatment); 1.95 nM in experiment [2]; 0.185 nM in experiment [3] (read-out: DC50(nM) H1975 # 28 DTC; H1975 # 28 DTC cells; EGFR degradation, IC50 (DC50) from curve fit); 0.955 nM in experiment [4]. Further, the “Dmax (%) H1975 # 28 DTC” value in experiment [3] (setting [7]) is 77.41%.
Regarding `CCOc1cc(N2CCC(N3CCN(CCc4ccc5c(c4)oc(=O)n5C4CCC(=O)NC4=O)CC3)CC2)c(CC)cc1Nc1ncc(Br)c(Nc2cc(F)c3nc(CC)ccc3c2P(C)(C)=O)n1` (centres unmarked) [Example 500, 3-(6-(2-(4-(1-(4-((5-bromo-4-((5-(dimethylphosphoryl)-2-ethyl-8-fluoroquinolin-6-yl)amino)pyrimidin-2-yl)amino)-5-ethoxy-2-ethylphenyl)piperidin-4-yl)piperazin-1-yl)ethyl)-2-oxobenzo[d]oxazol-3(2H)-yl)piperidine-2,6-dione], the “H1975 #23 DC Dmax (%)” value in experiment [1] (16h treatment) is 55.74%. Also, the 50% degradation concentration (DC50) in experiment [1] (setting [5]) turned out to be 1.11 nM; in experiment [2], 2.42 nM; in experiment [3] (setting [6]) it was 0.413 nM; in experiment [4] it was 1.11 nM. Also, the greatest degradation seen (Dmax) in experiment [2] worked out at 84.8%; in experiment [4], 92%. The “Dmax (%) H1975 # 28 DTC” value in experiment [3] (setting [7]) amounted to 71.9%.
With `CCOc1cc(N2CCC(N3CCN(CCc4cccc5c4C(C)(C)C(=O)N5C4CCC(=O)NC4=O)CC3)CC2)c(CC)cc1Nc1ncc(Br)c(Nc2ccc3c(=O)n(CC)ncc3c2P(C)(C)=O)n1` (centres unmarked) [Example 501, 3-(4-(2-(4-(1-(4-((5-bromo-4-((5-(dimethylphosphoryl)-2-ethyl-1-oxo-1,2-dihydrophthalazin-6-yl)amino)pyrimidin-2-yl)amino)-5-ethoxy-2-ethylphenyl)piperidin-4-yl)piperazin-1-yl)ethyl)-3,3-dimethyl-2-oxoindolin-1-yl)piperidine-2,6-dione], the “H1975 #23 DC Dmax (%)” value in experiment [1] (16h treatment) stood at 65.52%. For the same molecule, the half-maximal degradation concentration (DC50) in experiment [1] (setting [5]) amounted to 3.29 nM; in experiment [2], 3.34 nM; in experiment [3] (setting [6]), 0.759 nM; in experiment [4] it was 1.49 nM. Also, the “Dmax (%) H1975 # 28 DTC” value in experiment [3] (setting [7]) was determined as 85.93%.
On to `CCOc1cc(N2CCC(N3CCN(CCc4cc(F)c([C@H]5CCC(=O)NC5=O)c(F)c4)CC3)CC2)c(CC)cc1Nc1ncc(Br)c(Nc2ccc3c(=O)n(C)ncc3c2P(C)(C)=O)n1` [Example 502, (R)-3-(4-(2-(4-(1-(4-((5-bromo-4-((5-(dimethylphosphoryl)-2-methyl-1-oxo-1,2-dihydrophthalazin-6-yl)amino)pyrimidin-2-yl)amino)-5-ethoxy-2-ethylphenyl)piperidin-4-yl)piperazin-1-yl)ethyl)-2,6-difluorophenyl)piperidine-2,6-dione], for which the “H1975 #23 DC Dmax (%)” value in experiment [1] (16h treatment) worked out at 75.93%. For the same molecule, the DC50 in experiment [1] (setting [5]) came out at 5.49 nM; in experiment [2], 3.02 nM; in experiment [3] (setting [6]) it was 0.404 nM; in experiment [4] it was 57.2 nM. For the same molecule, the “Dmax (%) H1975 # 28 DTC” value in experiment [3] (setting [7]) is reported as 88.96%.
Take `CCOc1cc(N2CCC(N3CCN(CCc4c(F)ccc5c4n(C)c(=O)n5C4CCC(=O)NC4=O)CC3)CC2)c(CC)cc1Nc1ncc(Br)c(Nc2ccc3nc(CC)ccc3c2P(C)(C)=O)n1` (centres unmarked) [Example 503, 3-(4-(2-(4-(1-(4-((5-bromo-4-((5-(dimethylphosphoryl)-2-ethylquinolin-6-yl)amino)pyrimidin-2-yl)amino)-5-ethoxy-2-ethylphenyl)piperidin-4-yl)piperazin-1-yl)ethyl)-5-fluoro-3-methyl-2-oxo-2,3-dihydro-1H-benzo[d]imidazol-1-yl)piperidine-2,6-dione]: in experiment [1] (16h treatment), the “H1975 #23 DC Dmax (%)” value was 81.03%. The DC50 was 1.57 nM in experiment [1] (setting [5]), 7 nM in experiment [2], 1.34 nM in experiment [3] (setting [6]) and 7.53 nM in experiment [4]. For the same molecule, the “Dmax (%) H1975 # 28 DTC” value in experiment [3] (setting [7]) came to 79.81%.
On to `CCOc1cc(N2CCC(N3CCN(CCc4cccc5c4n(CC)c(=O)n5C4CCC(=O)NC4=O)CC3)CC2)c(CC)cc1Nc1ncc(Br)c(Nc2ccc3nc(CC)ccc3c2P(C)(C)=O)n1` (centres unmarked) [Example 504, 3-(4-(2-(4-(1-(4-((5-bromo-4-((5-(dimethylphosphoryl)-2-ethylquinolin-6-yl)amino)pyrimidin-2-yl)amino)-5-ethoxy-2-ethylphenyl)piperidin-4-yl)piperazin-1-yl)ethyl)-3-ethyl-2-oxo-2,3-dihydro-1H-benzo[d]imidazol-1-yl)piperidine-2,6-dione], for which the “H1975 #23 DC Dmax (%)” value in experiment [1] (16h treatment) was 78.25%. In addition, the 50% degradation concentration (DC50) in experiment [1] (setting [5]) is 2.95 nM; in experiment [2], 6.56 nM; in experiment [3] (setting [6]), 0.962 nM; in experiment [4], 12.4 nM. Besides, in experiment [3] (setting [7]), the “Dmax (%) H1975 # 28 DTC” value is recorded as 75.99%.
Turning to `CCOc1cc(N2CCC(N3CCN(CCc4ccc(F)c5c4oc(=O)n5C4CCC(=O)NC4=O)CC3)CC2)c(CC)cc1Nc1ncc(Br)c(Nc2ccc3nc(CC)ccc3c2P(C)(C)=O)n1` (centres unmarked) [Example 505, 3-(7-(2-(4-(1-(4-((5-bromo-4-((5-(dimethylphosphoryl)-2-ethylquinolin-6-yl)amino)pyrimidin-2-yl)amino)-5-ethoxy-2-ethylphenyl)piperidin-4-yl)piperazin-1-yl)ethyl)-4-fluoro-2-oxobenzo[d]oxazol-3(2H)-yl)piperidine-2,6-dione], the “H1975 #23 DC Dmax (%)” value in experiment [1] (16h treatment) is given as 68.68%. Moreover, the 50% degradation concentration (DC50) in experiment [1] (setting [5]) was found to be 3.17 nM; in experiment [2], 9.43 nM; in experiment [3] (setting [6]) it was 0.925 nM; in experiment [4], 8.88 nM. In addition, the “Dmax (%) H1975 # 28 DTC” value in experiment [3] (setting [7]) was 77.6%.
On to `CCc1cc(Nc2ncc(Br)c(Nc3ccc4nc(C)ccc4c3P(C)(C)=O)n2)c(OC)cc1N1CCC(N2CCN(CCc3cccc4c3oc(=O)n4C3CCC(=O)NC3=O)CC2)CC1` (centres unmarked) [Example 506, 3-(7-(2-(4-(1-(4-((5-bromo-4-((5-(dimethylphosphoryl)-2-methylquinolin-6-yl)amino)pyrimidin-2-yl)amino)-2-ethyl-5-methoxyphenyl)piperidin-4-yl)piperazin-1-yl)ethyl)-2-oxobenzo[d]oxazol-3(2H)-yl)piperidine-2,6-dione], for which the “H1975 #23 DC Dmax (%)” value in experiment [1] (16h treatment) came out at 80.87%. Besides, the DC50 is 2.04 nM in experiment [1] (setting [5]), 6.1 nM in experiment [2], 0.96 nM in experiment [3] (setting [6]) and 22.5 nM in experiment [4]. The Dmax in experiment [2] came to 93%; in experiment [4], 91.7%. In addition, the “Dmax (%) H1975 # 28 DTC” value in experiment [3] (setting [7]) came to 84.41%.
Take `CCc1cc(Nc2ncc(Br)c(Nc3ccc4nc(C)ccc4c3P(C)(C)=O)n2)c(OC)cc1N1CCC(N2CCN(C(=O)C3CN(c4cccc5c4C(C)(C)C(=O)N5C4CCC(=O)NC4=O)C3)CC2)CC1` (centres unmarked) [Example 507]: the “H1975 #23 DC Dmax (%)” value in experiment [1] (16h treatment) was 52.12%. Moreover, the DC50 in experiment [1] (setting [5]) is 2.41 nM; in experiment [2] it was 4.3 nM; in experiment [3] (setting [6]), 0.5 nM; in experiment [4], 8.97 nM. The maximal degradation (Dmax) in experiment [2] came out at 89.8%; in experiment [4], 94%. In addition, the “Dmax (%) H1975 # 28 DTC” value in experiment [3] (setting [7]) was 68.8%.
